Test results taken from US20230310634A1, “ANTI-HUMAN VISTA ANTIBODIES AND USE THEREOF” (IMMUNEXT, INC., priority 2020, published 2023).
“Also recorded” adds a separate entry of the source.

Key:
[1] = system: LPS-induced cytokine release; assay: LPS-induced systemic inflammation, plasma cytokines post LPS; parameters: species or system mice; settings: mouse, in vivo
Experimental: In order to evaluate the ADC potential efficacy in auto-immune diseases, we used the short-term model of LPS-induced systemic inflammation. Intraperitoneal (i.p.) injection of lipopolysaccharide (LPS) is widely used as a model for acute immune response—both local and systemic—in mice.
Blood was collected at 2 or 4 h post LPS i.p. injection, and plasma isolated for cytokine analyses.
Mice were dosed at 0.5 mg/Kg.
For ADC-INVIVO-30 and 35, the Immune Monitoring Lab (IML, Shared Resources at Dartmouth-Hitchcock Norris Cotton Cancer Center) performed the analyses.
ELISAs were conducted following the manufacturer's included protocol.
Cytokine data are censored when below a […] threshold for IL-12p40 and/or […] threshold for TNF-α as it indicates a failed LPS injection.

[2] = system: peritoneal resident macrophages; assay: In vivo treatment / ex vivo activation of peritoneal resident macrophages (TNFα, IL-6); parameters: species or system mice; settings: Experiment 9, 0.2 mg/Kg of GC payload, day −7, supernatants at 24 h
[3] = system: LPS stimulated human PBMCs; assay: In vitro potency of steroid payloads in LPS stimulated human PBMCs (IL-1β, IL-6 ELISA); format: cell-based; settings: for IL-1β production / IL-1β and IL-6 production: 1 ng/mL LPS, 24 hr; for IL-1β and IL-6 production: Experiment 1, 1000-1 nM

Structure (SMILES)	potency of conjugated linker/payload in the short term LPS activation model (conclusions) [1]	steroid potency as free payloads in LPS-activated human PBMCS (conclusions) [3]	other results
CC12C=CC(=O)C=C1CCC1C2C(O)CC2(C)C1CC1OC(c3ccc(Cc4cnc(NC(=O)C(CCC(=O)O)NC(=O)CNC(=O)CBr)s4)cc3)OC12C(=O)CO [INX N, (S)-4-(2-(2-bromoacetamido)acetamido)-5-((5-(4-((6aR,6bS,7S,8aS,8bS,10R,11aR,12aS,12bS)-7-hydroxy-8b-(2-hydroxyacetyl)-6a,8a-dimethyl-4-oxo-2,4,6a,6b,7,8,8a,8b,11a,12,12a,12b-dodecahydro-1H-naphtho[2′,1′:4,5]indeno[1,2-d][1,3]dioxol-10-yl)benzyl)thiazol-2-yl)amino)-5-oxopentanoic acid]	no potency		
C[C@]12C=CC(=O)C=C1CC[C@@H]1[C@@H]2[C@@H](O)C[C@@]2(C)[C@H]1C[C@H]1O[C@@H](c3ccc(CC45CC(NC(=O)[C@H](CCC(=O)O)NC(=O)CNC(=O)CBr)(C4)C5)cc3)O[C@]12C(=O)CO [INX P, (S)-4-(2-(2-bromoacetamido)acetamido)-5-((3-(4-((6aR,6bS,7S,8aS,8bS,10R,11 aR,12aS,12bS)-7-hydroxy-8b-(2-hydroxyacetyl)-6a,8a-dimethyl-4-oxo-2,4,6a,6b,7,8,8a,8b,11a,12,12a,12b-dodecahydro-1H-naphtho[2′,1′:4,5]indeno[1,2-d][1,3]dioxol-10-yl)benzyl)bicycle[1.1.1]pentan-1-yl)amino)-5-oxopentanoic acid]	more potent		
C[C@H](NC(=O)CBr)C(=O)N[C@@H](C)C(=O)NC12CC(Cc3ccc([C@@H]4O[C@@H]5C[C@H]6[C@@H]7CCC8=CC(=O)C=C[C@]8(C)[C@H]7[C@@H](O)C[C@]6(C)[C@]5(C(=O)CO)O4)cc3)(C1)C2 [INX R, (S)-2-(2-bromoacetamido)-N—((S)-1-((3-(4-((6aR,6bS,7S,8aS,8bS,10R,11aR, 12aS,12bS)-7-hydroxy-8b-(2-hydroxyacetyl)-6a,8a-dimethyl-4-oxo-2,4,6a,6b,7,8,8a,8b,11a,12,12a,12b-dodecahydro-1H-naphtho[2′,1′:4,5]indeno[1,2-d][1,3]dioxol-10-yl)benzyl)bicyclo [1.1.1]pentan-1-yl)amino)-1-oxopropan-2-yl)propanamide]	efficacious		
C[C@]12C=CC(=O)C=C1[C@@H](F)C[C@H]1[C@@H]3C[C@H]4O[C@@H](c5ccc(CC67CC(NC(=O)[C@H](CCC(=O)O)NC(=O)CNC(=O)CBr)(C6)C7)cc5)O[C@@]4(C(=O)CO)[C@@]3(C)C[C@H](O)[C@@]12F [INX S, (S)-4-(2-(2-bromoacetamido)acetamido)-5-((3-(4-((2S,6aS,6bR,7S,8aS,8bS, 10R,11 aR,12aS,12bS)-2,6b-difluoro-7-hydroxy-8b-(2-hydroxyacetyl)-6a,8a-dimethyl-4-oxo-2,4,6a,6b,7,8,8a,8b,11a,12,12a,12b-dodecahydro-1H-naphtho[2′,1′:4,5]indeno[1,2-d][1,3]dioxol-10-yl)benzyl)bicyclo [1.1.1]pentan-1-yl)amino)-5-oxopentanoic acid]			long term potency in controlling PRM cytokine responses (TNFα, IL-6) [2]: remarkable long term potency; also recorded: increased potency relative to INX P
C[C@]12C=CC(=O)C=C1CC[C@@H]1[C@@H]2[C@@H](O)C[C@@]2(C)[C@H]1C[C@H]1OC(c3ccc(CC4(N)CC(F)(F)C4)cc3)O[C@]12C(=O)CO (stereo partly drawn) [INX-SM-35, (6aR,6bS,7S,8aS,8bS,10R,11aR,12aS,12bS)-10-(4-((1-amino-3,3-difluorocyclobutyl)methyl)phenyl)-7-hydroxy-8b-(2-hydroxyacetyl)-6a,8a-dimethyl 1,2,6a,6b,7,8,8a,8b,11a,12,12a,12b-dodecahydro-4H-naphtho[2′,1′:4,5]indeno[1,2-d][1,3]dioxol-4-one]		varying degrees of dose dependent steroid potency	IL-1β production ([3]; Experiment 3, 1000-0.2 nM, n=2 donors): dose dependent inhibition
C[C@]12C=CC(=O)C=C1CC[C@@H]1[C@@H]2[C@@H](O)C[C@@]2(C)[C@H]1C[C@H]1O[C@H](c3ccc(CC45CC(N)(C4)C5)cc3)O[C@]12C(=O)CO [INX-SM-53, (6aR,6bS,7S,8aS,8bS,10S,11aR,12aS,12bS)-10-(4-((3-aminobicyclo[1.1.1]pentan-1-yl)methyl)phenyl)-7-hydroxy-8b-(2-hydroxyacetyl)-6a,8a-dimethyl-1,2,6a,6b,7,8,8a,8b, 11a,12,12a,12b-dodecahydro-4H-naphtho[2′,1′:4,5]indeno[1,2-d][1,3]dioxol-4-one]		did not show potency	IL-1β and IL-6 production ([3]; n=1 donor): did not show inhibition
C[C@]12C=CC(=O)C=C1CC[C@@H]1[C@@H]2[C@@H](O)C[C@@]2(C)[C@H]1C[C@H]1O[C@H](C34CC(Cc5cccc(N)c5)(C3)C4)O[C@]12C(=O)CO [INX-SM-54, (6aR,6bS,7S,8aS,8bS,10S,11aR,12aS,12bS)-10-(3-(3-aminobenzyl)bicyclo[1.1.1]pentan-1-yl)-7-hydroxy-8b-(2-hydroxyacetyl)-6a,8a-dimethyl-1,2,6a,6b,7,8,8a,8b,11a,12,12a,12b-dodecahydro-4H-naphtho[2′,1′:4,5]indeno[1,2-d][1,3]dioxol-4-one]		did not show potency	IL-1β and IL-6 production ([3]; n=1 donor): did not show inhibition
C[C@]12C=CC(=O)C=C1CC[C@@H]1[C@@H]2[C@@H](O)C[C@@]2(C)[C@H]1C[C@H]1O[C@H](c3cnc(Cc4cccc(N)c4)s3)O[C@]12C(=O)CO [INX-SM-56, (6aR,6bS,7S, 8aS,8bS,10S,11aR,12aS,12bS)-10-(2-(3-aminobenzyl)thiazol-5-yl)-7-hydroxy-8b-(2-hydroxyacetyl)-6a,8a-dimethyl-1,2,6a,6b,7,8,8a,8b, 11a,12,12a,12b-dodecahydro-4H-naphtho[2′,1′:4,5]indeno[1,2-d][1,3]dioxol-4-one]		did not show potency	IL-1β production ([3]; Experiment 2, 1000-1 nM, n=1 donor): did not show inhibition
C[C@]12C=CC(=O)C=C1[C@@H](F)C[C@H]1[C@@H]3C[C@H]4O[C@H](c5ccc(CC67CC(N)(C6)C7)cc5)O[C@@]4(C(=O)CO)[C@@]3(C)C[C@H](O)[C@@]12F [INX-SM-74, (2S,6aS,6bR,7S,8aS,8bS,10S,11aR,12aS,12bS)-10-(4-((3-aminobicyclo[1.1.1]pentan-1-yl)methyl)phenyl)-2,6b-difluoro-7-hydroxy-8b-(2-hydroxyacetyl)-6a,8a-dimethyl-1,2,6a,6b,7,8,8a,8b,11a,12,12a,12b-dodecahydro-4H-naphtho[2′,1′:4,5]indeno[1,2-d][1,3]dioxol-4-one]		varying degrees of dose dependent steroid potency; also recorded: moderate potency	impact of halogenation of the steroid ring on potency ([3]; Experiment 6, 1000-0.16 nM, compared with INX-SM-3): dose dependent potency
